Source: patent US9120793B2, “Triazolo-pyridine compound” (Eli Lilly and Company, priority 2013, dated 2015)

Experiments:
Male Balb/c mice = assay: Intraperitoneal glucose tolerance test (ipGTT); assay type: in vivo; design: key to Effect on blood glucose, statistical significance compared to vehicle during ipGTT: *P < 0.05; **P < 0.01; ****P < 0.0001; ns: not significant
Source text: To examine the ability of the compound of Example 1 to activate GPR-40 in-vivo resulting in anti-diabetic efficacy, i.e. reduction in plasma glucose levels, an intraperitoneal glucose tolerance test (ipGTT) study is completed, and the data is shown for the compound of Example 1, below in Table 7.
Male Balb/c (Albino mice) mice (8-9 weeks of age) are single housed, and fed with normal rodent chow diet and water ad libitum. Animals are weighed; randomized by body weight; and their daily body weights are recorded. On the night before the study, animals are fasted overnight. In the morning, animals are dosed orally with compound of Example 1 or vehicle alone 60 minutes prior to the glucose tolerance test (glucose 2 g/kg, i.p.). Blood glucose levels are determined from tail bleeds taken at 0, 3, 7, 15, 30, and 60 min after glucose challenge. […] Percent lowering in glucose is calculated from the AUC data of the compound with respect to the AUC of vehicle group. The compound of Example 1 is orally administered at 0.1, 0.3, 1.0, 3.0, 10, or 30 mg/kg, and a positive control (3-[4-(2-methyl-benzyloxy)-phenyl]-hex-4-ynoic acid) is administered at 10 mg/kg.

human GPR-40 (hGPR-40) = molecular target: T1, human GPR-40 (hGPR-40) (Homo sapiens, UniProt O14842); assay: Radioligand competition binding, in vitro binding affinity to GPR-40; details: 5 nM [3H] TAK-875; membranes of HEK293 cells overexpressing hGPR-40; Cheng-Prusoff
T1 construct: expressed in transfected cells; host or cells: HEK293 (membranes)
Source text: Competition curves are plotted as the percent specific inhibition versus concentration of compound and analyzed using a four parameter nonlinear regression fit with variable slope. […] See Cheng, Y. and Prusoff, W. H. (1973) “Relationship between the inhibition constant (Ki) and the concentration of inhibitor which causes 50 per cent inhibition (IC50) of an enzymatic reaction,” Biochem Pharmacol 22(23):3099-3108. […] (Mean±SEM; SEM=standard error of the mean.).

T1 sequence (O14842 whole entry): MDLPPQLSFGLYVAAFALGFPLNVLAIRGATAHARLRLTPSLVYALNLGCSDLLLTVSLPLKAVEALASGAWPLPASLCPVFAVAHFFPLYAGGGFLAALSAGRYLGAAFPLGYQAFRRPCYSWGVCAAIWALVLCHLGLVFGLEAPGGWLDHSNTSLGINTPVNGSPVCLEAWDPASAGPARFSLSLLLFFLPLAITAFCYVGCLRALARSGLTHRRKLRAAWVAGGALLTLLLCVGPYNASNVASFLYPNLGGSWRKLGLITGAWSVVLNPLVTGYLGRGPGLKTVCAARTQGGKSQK

Question: Which results are given for `CC#C[C@@H](CC(=O)O)c1ccc(OCc2ccc3nc(-c4c(C)cccc4C)nn3c2)cc1` [Example 1, (3S)-3-[4-[[2-(2,6-Dimethylphenyl)-[1,2,4]triazolo[1,5-a]pyridin-6-yl]methoxy]phenyl]hex-4-ynoic acid]?
Answer: glucose levels at the 15 minute time point (Male Balb/c mice; 30 mg/kg dose, oral): significantly lowered; glucose levels at the 3 or 7 minute time points (Male Balb/c mice; Example 1 0.1-30 mg/kg oral, positive control 10 mg/kg): No concentration of compound of Example 1 or the positive control significantly lowered; glucose levels at the 30 minute time point (Male Balb/c mice; Example 1 1.0, 10 and 30 mg/kg doses, positive control 10 mg/kg): significantly lowered; glucose levels at the 60 minute time point (Male Balb/c mice; Example 1 3.0, 10 and 30 mg/kg doses, positive control 10 mg/kg): significantly lowered; ED50 (Male Balb/c mice; Mus musculus, oral, 60 minutes prior to glucose 2 g/kg i.p., read-out: ED50 based on AUCs for glucose lowering): 7.6 mg/kg; Effect on blood glucose, statistical significance compared to vehicle during ipGTT (Male Balb/c mice; dose 0.1 mpk oral, time 0 min): Ns; Effect on blood glucose, statistical significance compared to vehicle during ipGTT (Male Balb/c mice; dose 0.1 mpk oral, time 3 min): ns; Effect on blood glucose, statistical significance compared to vehicle during ipGTT (Male Balb/c mice; dose 0.1 mpk oral, time 7 min): ns; Effect on blood glucose, statistical significance compared to vehicle during ipGTT (Male Balb/c mice; dose 0.1 mpk oral, time 15 min): Ns; Effect on blood glucose, statistical significance compared to vehicle during ipGTT (Male Balb/c mice; dose 0.1 mpk oral, time 30 min): ns; Effect on blood glucose, statistical significance compared to vehicle during ipGTT (Male Balb/c mice; dose 0.1 mpk oral, time 60 min): ns; Effect on blood glucose, statistical significance compared to vehicle during ipGTT (Male Balb/c mice; dose 0.3 mpk oral, time 0 min): Ns; Effect on blood glucose, statistical significance compared to vehicle during ipGTT (Male Balb/c mice; dose 0.3 mpk oral, time 3 min): ns; Effect on blood glucose, statistical significance compared to vehicle during ipGTT (Male Balb/c mice; dose 0.3 mpk oral, time 7 min): ns; Effect on blood glucose, statistical significance compared to vehicle during ipGTT (Male Balb/c mice; dose 0.3 mpk oral, time 15 min): ns; Effect on blood glucose, statistical significance compared to vehicle during ipGTT (Male Balb/c mice; dose 0.3 mpk oral, time 30 min): ns; Effect on blood glucose, statistical significance compared to vehicle during ipGTT (Male Balb/c mice; dose 0.3 mpk oral, time 60 min): ns; Effect on blood glucose, statistical significance compared to vehicle during ipGTT (Male Balb/c mice; dose 1 mpk oral, time 0 min): Ns; Effect on blood glucose, statistical significance compared to vehicle during ipGTT (Male Balb/c mice; dose 1 mpk oral, time 3 min): ns; Effect on blood glucose, statistical significance compared to vehicle during ipGTT (Male Balb/c mice; dose 1 mpk oral, time 7 min): ns; Effect on blood glucose, statistical significance compared to vehicle during ipGTT (Male Balb/c mice; dose 1 mpk oral, time 15 min): ns; Effect on blood glucose, statistical significance compared to vehicle during ipGTT (Male Balb/c mice; dose 1 mpk oral, time 30 min): * (*P < 0.05); Effect on blood glucose, statistical significance compared to vehicle during ipGTT (Male Balb/c mice; dose 1 mpk oral, time 60 min): ns; Effect on blood glucose, statistical significance compared to vehicle during ipGTT (Male Balb/c mice; dose 3 mpk oral, time 0 min): Ns; Effect on blood glucose, statistical significance compared to vehicle during ipGTT (Male Balb/c mice; dose 3 mpk oral, time 3 min): ns; Effect on blood glucose, statistical significance compared to vehicle during ipGTT (Male Balb/c mice; dose 3 mpk oral, time 7 min): ns; Effect on blood glucose, statistical significance compared to vehicle during ipGTT (Male Balb/c mice; dose 3 mpk oral, time 15 min): ns; Effect on blood glucose, statistical significance compared to vehicle during ipGTT (Male Balb/c mice; dose 3 mpk oral, time 30 min): ns; Effect on blood glucose, statistical significance compared to vehicle during ipGTT (Male Balb/c mice; dose 3 mpk oral, time 60 min): ** (**P < 0.01); Effect on blood glucose, statistical significance compared to vehicle during ipGTT (Male Balb/c mice; dose 10 mpk oral, time 0 min): Ns; Effect on blood glucose, statistical significance compared to vehicle during ipGTT (Male Balb/c mice; dose 10 mpk oral, time 3 min): ns; Effect on blood glucose, statistical significance compared to vehicle during ipGTT (Male Balb/c mice; dose 10 mpk oral, time 7 min): ns; Effect on blood glucose, statistical significance compared to vehicle during ipGTT (Male Balb/c mice; dose 10 mpk oral, time 15 min): ns; Effect on blood glucose, statistical significance compared to vehicle during ipGTT (Male Balb/c mice; dose 10 mpk oral, time 30 min): **** (****P < 0.0001); Effect on blood glucose, statistical significance compared to vehicle during ipGTT (Male Balb/c mice; dose 10 mpk oral, time 60 min): **** (****P < 0.0001); Effect on blood glucose, statistical significance compared to vehicle during ipGTT (Male Balb/c mice; dose 30 mpk oral, time 0 min): Ns; Effect on blood glucose, statistical significance compared to vehicle during ipGTT (Male Balb/c mice; dose 30 mpk oral, time 3 min): ns; Effect on blood glucose, statistical significance compared to vehicle during ipGTT (Male Balb/c mice; dose 30 mpk oral, time 7 min): ns; Effect on blood glucose, statistical significance compared to vehicle during ipGTT (Male Balb/c mice; dose 30 mpk oral, time 15 min): ** (**P < 0.01); Effect on blood glucose, statistical significance compared to vehicle during ipGTT (Male Balb/c mice; dose 30 mpk oral, time 30 min): **** (****P < 0.0001); Effect on blood glucose, statistical significance compared to vehicle during ipGTT (Male Balb/c mice; dose 30 mpk oral, time 60 min): **** (****P < 0.0001); Ki (human GPR-40 (hGPR-40)): 14.9 nM
